The target of data set [1] is T1, Oxysterols receptor LXR-alpha (Homo sapiens, UniProt Q13133).
T1 sequence (Q13133 whole entry): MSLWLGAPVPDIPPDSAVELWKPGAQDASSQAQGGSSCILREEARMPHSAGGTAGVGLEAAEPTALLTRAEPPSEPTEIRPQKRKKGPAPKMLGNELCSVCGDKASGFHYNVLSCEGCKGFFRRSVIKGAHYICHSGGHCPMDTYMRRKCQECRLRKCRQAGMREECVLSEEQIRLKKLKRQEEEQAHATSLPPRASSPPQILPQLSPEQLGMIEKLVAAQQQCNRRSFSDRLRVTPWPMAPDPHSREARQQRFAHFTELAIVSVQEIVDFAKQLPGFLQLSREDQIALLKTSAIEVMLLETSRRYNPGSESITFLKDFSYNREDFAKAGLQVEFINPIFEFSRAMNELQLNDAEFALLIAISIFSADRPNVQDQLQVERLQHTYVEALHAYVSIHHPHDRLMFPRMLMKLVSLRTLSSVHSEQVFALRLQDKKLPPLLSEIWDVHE
Put plainly: (§1) Binding affinity to LXRalpha.

For data set [2], the target named is T1, Oxysterols receptor LXR-alpha. Description: (§2) Transactivation of LXRalpha.
Data set [3] has as its system Mus musculus. Put plainly: Increase in HDL-cholesterol level in C57BL/6J mouse at 10 mg/kg/day, ip dosed for 5 days measured 2 hrs after last dose. The class given is functional. The following applies: route intraperitoneal.
For data set [4], the system named is Mus musculus. Description: Increase in liver triglyceride level in C57BL/6J mouse at 40 mg/kg/day, ip dosed for 5 days measured 2 hrs after last dose. The class given is functional. The conditions noted are these: route intraperitoneal.
Data set [5] is described as follows: Plasma concentration in C57BL/6J mouse at 40 mg/kg/day, ip dosed for 5 days. Details: route intraperitoneal. The class given is ADME, organism-based.
Data set [6] can be described thus: Drug level in C57BL/6J mouse liver at 10 mg/kg/day, ip dosed for 5 days. Format: ADME, organism-based. Details: route intraperitoneal. The conditions noted are these: read-out: Drug uptake.
Data set [7] deals with Mus musculus. Put plainly: Increase in liver triglyceride level in C57BL/6J mouse at 100 mg/kg/day, ip dosed for 5 days measured 2 hrs after last dose. Format: functional. The following applies: route intraperitoneal.
A short description of data set [8]: Plasma concentration in C57BL/6J mouse at 10 mg/kg/day, ip dosed for 5 days. The class given is ADME, organism-based. Further details: route intraperitoneal.
The test system of data set [9] is Mus musculus. Put plainly: Increase in plasma triglyceride level in C57BL/6J mouse at 100 mg/kg/day, ip dosed for 5 days measured 2 hrs after last dose. The class given is functional. The conditions noted are these: route intraperitoneal.
Data set [10] relates to Mus musculus. Put plainly: Increase in liver triglyceride level in C57BL/6J mouse at 10 mg/kg/day, ip dosed for 5 days measured 2 hrs after last dose. The class given is functional. The following applies: route intraperitoneal.
Data set [11] in a line: Drug level in C57BL/6J mouse liver at 100 mg/kg/day, ip dosed for 5 days. Format: ADME, organism-based. Details: route intraperitoneal. The following applies: read-out: Drug uptake.
The test system of data set [12] is Mus musculus. Description: Increase in plasma triglyceride level in C57BL/6J mouse at 40 mg/kg/day, ip dosed for 5 days measured 2 hrs after last dose. The conditions noted are these: route intraperitoneal. The class given is functional.
Data set [13] concerns Mus musculus. Put plainly: Increase in HDL-cholesterol level in C57BL/6J mouse at 40 mg/kg/day, ip dosed for 5 days measured 2 hrs after last dose. Format: functional. The conditions noted are these: route intraperitoneal.
Data set [14] is described as follows: Drug level in C57BL/6J mouse liver at 40 mg/kg/day, ip dosed for 5 days. Format: ADME, organism-based. Further details: route intraperitoneal. The following applies: read-out: Drug uptake.
The subject of data set [15] is Mus musculus. Put plainly: Increase in HDL-cholesterol level in C57BL/6J mouse at 100 mg/kg/day, ip dosed for 5 days measured 2 hrs after last dose. The following applies: route intraperitoneal. Format: functional.
Data set [16] is described as follows: Plasma concentration in C57BL/6J mouse at 100 mg/kg/day, ip dosed for 5 days. Further details: route intraperitoneal. Format: ADME, organism-based.
Another data set concerns the target Cytochrome P450 3A4 (Homo sapiens, UniProt P08684). Put plainly: Binding affinity to CYP3A4. Format: ADME.
The subject of data set [17] is Mus musculus. Put plainly: Increase in plasma triglyceride level in C57BL/6J mouse at 10 mg/kg/day, ip dosed for 5 days measured 2 hrs after last dose. Format: functional. The conditions noted are these: route intraperitoneal.
The target of data set [18] is Voltage-gated inwardly rectifying potassium channel KCNH2 (Homo sapiens, UniProt Q12809). Put plainly: Binding affinity to human ERG.
In data set [19] the target is T2, Oxysterols receptor LXR-alpha (Homo sapiens) (UniProt Q13133).
T2 sequence (whole entry): T1 sequence (Q13133 whole entry)
The description is as §1.

In data set [20] the target is T2, Oxysterols receptor LXR-alpha (Homo sapiens). The data set is described as §2.

Broadly, the IC50 is the concentration at which inhibition is half-maximal. A high value points to weaker potency. The term EC50 denotes the concentration needed to bring the measured effect to its halfway point. A higher EC50 goes with a less potent agent.

Active and inactive are the calls of the source. No cut-off for these calls is given here.

Chain of Cytochrome P450 3A4 (P08684 whole entry): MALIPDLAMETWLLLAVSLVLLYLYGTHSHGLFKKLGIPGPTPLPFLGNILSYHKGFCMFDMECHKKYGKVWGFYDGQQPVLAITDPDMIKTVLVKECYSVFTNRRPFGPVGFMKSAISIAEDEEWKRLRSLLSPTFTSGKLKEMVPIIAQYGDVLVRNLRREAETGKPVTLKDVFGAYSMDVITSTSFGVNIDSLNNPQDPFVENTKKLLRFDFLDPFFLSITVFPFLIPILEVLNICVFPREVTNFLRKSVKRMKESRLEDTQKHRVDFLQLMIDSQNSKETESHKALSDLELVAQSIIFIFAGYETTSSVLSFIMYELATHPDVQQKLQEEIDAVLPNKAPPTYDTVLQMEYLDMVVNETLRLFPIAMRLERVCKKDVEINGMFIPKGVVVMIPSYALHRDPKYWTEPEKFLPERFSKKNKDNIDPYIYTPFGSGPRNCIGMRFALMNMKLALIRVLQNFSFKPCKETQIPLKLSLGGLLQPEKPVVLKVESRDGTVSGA
Chain of Voltage-gated inwardly rectifying potassium channel KCNH2 (Q12809 whole entry): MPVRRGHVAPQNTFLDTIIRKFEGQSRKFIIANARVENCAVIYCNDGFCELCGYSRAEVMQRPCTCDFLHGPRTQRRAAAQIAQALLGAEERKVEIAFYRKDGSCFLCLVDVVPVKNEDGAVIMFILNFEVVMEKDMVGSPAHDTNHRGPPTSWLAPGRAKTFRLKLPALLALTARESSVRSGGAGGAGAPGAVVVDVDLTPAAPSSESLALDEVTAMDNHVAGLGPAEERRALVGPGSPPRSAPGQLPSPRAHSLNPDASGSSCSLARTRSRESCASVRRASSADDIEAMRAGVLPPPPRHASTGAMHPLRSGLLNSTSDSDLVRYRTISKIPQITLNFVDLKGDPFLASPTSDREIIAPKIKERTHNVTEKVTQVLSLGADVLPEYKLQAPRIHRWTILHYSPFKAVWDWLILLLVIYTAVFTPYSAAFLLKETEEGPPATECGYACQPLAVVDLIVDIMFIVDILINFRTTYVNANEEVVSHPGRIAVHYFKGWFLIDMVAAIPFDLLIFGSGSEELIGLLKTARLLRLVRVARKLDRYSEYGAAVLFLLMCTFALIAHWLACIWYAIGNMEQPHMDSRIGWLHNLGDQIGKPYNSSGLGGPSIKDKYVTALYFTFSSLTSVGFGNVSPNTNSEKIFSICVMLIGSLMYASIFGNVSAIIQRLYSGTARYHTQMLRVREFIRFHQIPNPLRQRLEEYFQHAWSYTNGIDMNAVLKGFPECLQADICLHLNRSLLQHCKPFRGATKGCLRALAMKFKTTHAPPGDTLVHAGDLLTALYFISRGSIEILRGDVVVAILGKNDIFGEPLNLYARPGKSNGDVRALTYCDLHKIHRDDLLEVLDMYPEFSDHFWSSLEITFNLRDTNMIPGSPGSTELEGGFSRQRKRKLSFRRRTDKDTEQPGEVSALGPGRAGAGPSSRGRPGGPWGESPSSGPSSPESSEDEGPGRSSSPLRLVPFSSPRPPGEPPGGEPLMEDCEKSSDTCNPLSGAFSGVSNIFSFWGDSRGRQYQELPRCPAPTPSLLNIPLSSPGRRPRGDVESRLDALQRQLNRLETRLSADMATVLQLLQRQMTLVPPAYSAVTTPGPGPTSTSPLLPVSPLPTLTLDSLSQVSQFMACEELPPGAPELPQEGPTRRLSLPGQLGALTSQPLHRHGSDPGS

`COC(=O)c1noc([C@](F)([C@H]2Cc3[nH]c4ccc(Cl)cc4c3C2)S(=O)(=O)c2ccccc2)n1` (racemic) had an IC50 in data set [1] of 1630 nM. Further, the EC50 in [2] is 1260 nM.

With `N#Cc1noc([C@](F)([C@H]2Cc3[nH]c4ccc(Cl)cc4c3C2)S(=O)(=O)c2ccccc2)n1` (racemic), in data set [1], the concentration for half-maximal inhibition (IC50) came out at 100 nM. In addition, in data set [2], the midpoint of the response, the EC50, lay at 160 nM.

As to `Cc1nnc([C@](F)([C@H]2Cc3[nH]c4ccc(Cl)cc4c3C2)S(=O)(=O)c2ccccc2)o1`, the Activity was 27% with Mus musculus [3]; -19% with Mus musculus [4]; 45% with Mus musculus [7]; -2% in the data set with Mus musculus [9]; 100% with Mus musculus [10]; 9% in the data set on Mus musculus [12]. Besides, the Activity with Mus musculus [13] is given as 27%; with Mus musculus [15], 36%; at Cytochrome P450 3A4, “Not Active”; in the data set on Mus musculus [17] it was 9%; in data set [18] it was “Not Active”. The concentration at 120 h is 682 ng/mL in [5]; 1130 ng/g in data set [6]; 180 ng/mL in data set [8]; 13200 ng/g in data set [11]; 5490 ng/g in [14]; 2150 ng/mL in [16].

For `O=S(=O)(c1ccccc1)N(CC(F)(F)F)c1ccc(C(O)(C(F)(F)F)C(F)(F)F)cc1` [T091317], the Activity is on record as 23% with Mus musculus [3], 270% in the data set with Mus musculus [10] and 20% in the data set with Mus musculus [17]. Also, the values for the concentration at 120 h in data set [6] and in [8] were 7900 ng/g and 255 ng/mL, respectively.

In the case of `COC(=O)C(C)(C1CCCc2c([nH]c3ccc(Cl)cc23)C1)S(=O)(=O)c1ccccc1` (stereo not drawn), the outcome in data set [19] and in data set [20] was inactive.

The values are drawn from ChEMBL document CHEMBL1153298, “Discovery of tetrahydro-cyclopenta[b]indole as selective LXRs modulator” (Bioorg Med Chem Lett, 2009).
